One molecule from US11236055B2 (Venenum Biodesign, LLC, priority 2016, dated 2022) can be followed below.

Data set [1] is described as follows: Portal vein versus systemic pharmacokinetics in hepatic portal vein cannulated rats. Type of data set: in vivo, rat. Particulars: portal vein cannulated male CD (SD) rats, 10 mg/kg oral; for Cmax / Tmax / AUC(0-t): rat; for AUC(0-t): read-out: AUC (0-7 h). How it is done: Low Level of Compounds is Attributed to Low Intestinal Absorption
In this study, it was determined if the low plasma level of the compounds of the present invention is due to low absorption in the gut, or due to the first pass effect (i.e., absorption followed by a rapid degradation of compounds by liver). Hepatic portal vein cannulated male CD (SD) rats obtained from Charles River Laboratory were utilized. In brief, Compound 20BG was administered orally at 10 mg/kg, and blood was obtained simultaneously from the portal vein and systemic circulation (retro-orbital sinus) at pre-dose, 0.25, 0.5, 1, 2, and 4 hours post-dose, in EDTA coated tubes. The samples were processed into plasma and quantification of compound levels in the plasma was accomplished by means of LC-MS/MS analysis as described in Example 59.

Data set [2] concerns DIO mice. In words: Weight loss after multiple days of dosing in DIO mice. The format is in vivo, mouse. Particulars: DIO mice on high fat diet, oral BID for 12 days. The protocol: Monitoring of Weight Loss after Multiple Days of Dosing Compounds
Compounds of the present invention were dosed for multiple days and were evaluated for their ability to cause mice to lose weight. In the next series of studies (Examples 66-70), Male DIO mice were received at 12 weeks of age (from Taconic), and were single-housed at the testing facility and acclimated for at least 2 weeks. The mice were provided a high fat diet [Research Diet D12492 (60% Fat kcal)] while in the testing facility. Before the study initiation, the animals were randomized into 5 experimental groups by body weight. The vehicle group contained only 0.5% carboxymethylcellulose (medium viscosity)+0.25% Tween-80. The second group contained 10 mg/kg of the DPP-IV inhibitor Linagliptin while the third group contained 10 mg/kg Compound 20BG. The fourth group contained the combination of 10 mg/kg Linagliptin and 10 mg/kg Compound 20BG. The fifth group was the positive control for weight loss, Liraglutide. All mice, except the Liraglutide group, were dosed BID at approximately 6:00 am and again at approximately […]. The positive control liraglutide was administered at a dose of 0.2 mg/kg subcutaneously in the afternoon.
Compounds of the present invention were evaluated for their ability to cause mice to lose weight. Mice were dosed compounds for 12 days and body weights were recorded twice a week.

For data set [3], the system named is DIO mice. Briefly: Food intake after multiple days of dosing in DIO mice. The format is in vivo, mouse. Particulars: DIO mice on high fat diet, oral BID for 12 days. The protocol:
Monitoring of Food Intake after Multiple Days of Dosing Compounds
Compounds of the present invention were dosed for multiple days and were evaluated for their ability to cause mice to have a lower food intake. Mice were dosed compounds for 12 days as per the protocol in Example 66.
The HFD (Research Diets, D12492, 60% fat kcal) is placed at the bottom of the cage of a singly-housed animal. The remaining food in each cage is recovered and weighed again at the same time of day 3 or 4 days later. The difference in the starting and ending food weight represents the amount of food consumed. Daily food intake is calculated by averaging over a 3 or 4 day period every week.

A short description of data set [4]: Bile weight after multiple days of dosing in DIO mice. Type of data set: in vivo, mouse. The settings on record: 12 days of dosing, about 6 h after final dose. The protocol:
No Bile Weight Increase after Multiple Days of Dosing Compounds
Compounds of the present invention were dosed for multiple days and evaluated for an increase in bile weight within the gallbladder. In this example, the protocol from Example 66 was utilized. In week 2 of the study, mice were euthanized and bile was removed from the gallbladder about 6 hours after the final dose and the bile was weighed to approximate the volume of bile contained within the bladder.

The mark [5] stands for this setting: portal vein plasma, Portal Vein bleed.
The mark [6] stands for this setting: systemic plasma (retro-orbital sinus), Peripheral bleed (retro-orbital sinus).

Where two headings read alike, the source gives them in different places.

For the molecule `CCc1cnccc1-c1cccc([C@H](C)N(CCCC(=O)NCCS(=O)(=O)NCC(=O)O)S(=O)(=O)c2ccccc2C(F)(F)F)c1` [Compound 20BG], the “absorption (PK in portal vein and systemic circulation)” value in data set [1] is recorded as “very low absorption”. In addition, in data set [1] (setting [5]), the highest level (Cmax) was 7.6 ± 3.6 ng/mL, the Tmax lay in the range of 15 to 120 min and the AUC(0-t) is 30.1 ± 0.9 ng·h/mL. In data set [1] (setting [6]), the highest level (Cmax) was 1.3 ± 0.7 ng/mL, the Tmax is 15 to 60 min and the AUC(0-t) came out at 3.1 ± 10.8 ng·h/mL. In addition, the body weight change result with DIO mice [2] is given as “modest weight loss”. Moreover, the food intake result in the data set with DIO mice [3] is listed as “no significant effect”. For the same molecule, the “bile weight / gallbladder size” value in data set [4] was “does not show an increase”.

Usually Cmax stands for the maximum level reached in the sampled fluid or tissue. The term Tmax denotes the time at which the peak concentration occurs.
